Test results taken from patent US4912092A, “Methods for increasing extracellular adenosine and for stabilizing mast cells” (The Regents of the University of California, priority 1987, dated 1990).

How the values were obtained:
AMP deaminase = molecular target: T1, AMP deaminase (Homo sapiens, UniProt Q01433); assay: Inhibition of AMP deaminase (14C-AMP to 14C-IMP conversion); type: biochemical
T1 construct: endogenous in cells
T1 sequence (Q01433 1-825): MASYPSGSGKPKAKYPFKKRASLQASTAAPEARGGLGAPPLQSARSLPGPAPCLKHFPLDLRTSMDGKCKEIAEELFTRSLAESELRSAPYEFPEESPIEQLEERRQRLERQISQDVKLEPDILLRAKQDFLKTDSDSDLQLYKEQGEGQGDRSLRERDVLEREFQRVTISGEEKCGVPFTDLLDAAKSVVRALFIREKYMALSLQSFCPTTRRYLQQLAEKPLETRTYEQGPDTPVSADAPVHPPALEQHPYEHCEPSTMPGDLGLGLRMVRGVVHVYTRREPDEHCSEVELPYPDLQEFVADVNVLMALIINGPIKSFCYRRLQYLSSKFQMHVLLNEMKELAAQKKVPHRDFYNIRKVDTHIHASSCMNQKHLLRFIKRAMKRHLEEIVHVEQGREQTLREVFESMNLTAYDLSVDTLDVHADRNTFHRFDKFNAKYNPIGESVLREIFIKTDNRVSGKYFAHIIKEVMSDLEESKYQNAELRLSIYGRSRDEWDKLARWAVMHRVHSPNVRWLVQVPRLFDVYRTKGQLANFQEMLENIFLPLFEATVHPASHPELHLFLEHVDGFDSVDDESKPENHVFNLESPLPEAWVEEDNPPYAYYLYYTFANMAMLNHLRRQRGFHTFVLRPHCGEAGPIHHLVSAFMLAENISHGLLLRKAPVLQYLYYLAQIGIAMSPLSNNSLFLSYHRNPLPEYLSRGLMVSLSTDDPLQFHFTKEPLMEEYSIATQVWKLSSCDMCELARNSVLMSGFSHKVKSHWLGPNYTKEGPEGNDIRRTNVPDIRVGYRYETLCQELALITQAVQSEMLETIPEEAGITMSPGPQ
Protocol: The phosphorylated forms are referred to as AICA ribotide and ribavirin monophosphate, respectively. Using 200 μM of each ribotide, AMP deaminase was inhibited 38% and 54%, respectively.

[1] = test system: HPRT- neuroblastoma cells; assay: Adenosine excretion by ionophore-stimulated HPRT- neuroblastoma cells; type: cell-based; conditions: pretreatment
Protocol: (§1) The history and properties of the cell line have been described by Hershfield et al. in Science, Vol. 197, p. 1284, 1977.
(§2) Catabolism of cellular ATP stores was stimulated by adding either 2-deoxyglucose or a calcium ionophore. At various times, the amount of adenosine released by the cells into the supernatant, or the amount of nucleotides remaining in the cells, was determined by mixing 30 μl of chilled 4.4N perchloric acid with 300 μl of supernatants, or by adding 300 μl of chilled 0.4N perchloric acid to the cells collected as pellets and centrifuging the mixtures at 500×G for 10 minutes at 4° C. […] 1245, 1975. Following centrifugation at 1500×G for three minutes at 4° C., the aqueous phase is removed and frozen at -20° C. until assayed for adenosine, inosine, or for nucleotides. Adenosine was evaluated isocratically on a C-18 microBondapak reverse phase column equilibrated with 4 millimolar potassium phosphate, (pH 3.4):acetonitrile 60% in water (95:5 v/v) buffer. Adenosine elutes at 8-10 minutes, and its identity was confirmed by its sensitivity to adenosine deaminase and by spiking with adenosine standards. The extracted samples from the cell pellet were analyzed for nucleotides by high pressure liquid chromatography on a Whatman Partisil-10 (SAX) column equilibrated with 10 millimolar potassium phosphate, pH 3.78, and eluted with a linear gradient to a 0.25 molar potassium phosphate, 0.5 molar KCl, pH 3.45. […] Peaks were quantitated by comparison with high pressure liquid chromatography analysis of suitable standards.
To induce ATP catabolism, the growth medium was replaced by medium containing micromolar amounts of the calcium ionophore A23187 and 1.0 μM deoxycoformycin.

[2] = test system: Mouse bone marrow-derived mast cells; type: cell-based
Protocol: By preventing mast cell degranulation, it is possible to prevent or control a patient's allergic response. Bone marrow obtained from Balb/C mice femurs was cultured in a 1:1 mixture of Razin media and conditioned media, produced by co-culturing splenocytes from C57B1/6J and C3H mice in the presence of Concanavalin A as described by Razin et al. in the Proc. Natl. Acad. Sci. USA 28: 2559-2561, 1981. After weekly passaging and at least 15 days in tissue culture, the resulting cells were 90% pure mast cells and 95% viable as assessed by Trypan blue exclusion. Cells exposed to ribavirin in culture were washed three times prior to use in experiments. Parallel cultures of cells grown in media alone were used as controls for pharmacologically manipulated mast cells. Cell growth was assessed by counting cells at particular time points and comparing actual numbers of ribavirin-treated cells to numbers of cells grown in media alone.
β-hexosaminidase was chosen as a representative granule-associated, preformed mast cell mediator because it is easily quantitated, and its release nearly identically parallels that of histamine. Mouse bone marrow-derived mast cells were centrifuged at 200×g for 5 minutes, washed three times in Tyrode's buffer lacking divalent cations, sensitized for 30 minutes at 37° C. with anti-DNP ([…]) IgE (1 μg/10^6 cells) and challenged with either DNP-BSA antigen (175 ng/3×10^5 cells) or A23187 (10 μg/ml/3×10^5 cells) in 400 μl of complete Tyrode's buffer for 10 minutes at 37° C. Reaction mixtures were centrifuged at 200×g for 10 minutes, and supernatant and pellet β-hexosaminidase concentrations were assayed by the hydrolysis of p-nitrophenyl-β-D-glucosamide as described in Schwartz et al. in J. Immunol. […] Spontaneous β-hexosaminidase release was determined in unchallenged cells. The net % of β-hexosaminidase released is defined as follows: [formula] where [β-hex] is β-hexosaminidase and super. is supernatant. When exogenous adenosine was present in reaction mixtures, it was added simultaneously with the secretagogue.

[3] = test system: human splenic lymphoblast cell line (WI-L2); assay: Adenosine excretion by human lymphoblasts during ATP breakdown (2-deoxyglucose); type: cell-based; conditions: three-hour preincubation and four-hour incubation during 2-deoxyglucose treatment (FIGS. 8, 9)
Protocol: as §1, §2
Cells were grown to about 0.5×10^6 cells/ml (mid-log phase) in FIG. 2 and to about 1.0×10^6 cells/ml (early stationary phase) in FIGS. 7-9.

[4] = test system: granulocytes and endothelial cells; assay: Granulocyte/endothelial cell interaction, intravital microscopy of mesentery microvessels; type: in vivo, rat; conditions: superfusion with 20 μM, approximately 2 μM in the vessel
Protocol: The parameter measured was the fracture stress between the two cell types.
These studies were performed by intravital microscopy filming of granulocytes in rat mesentary microvessels. The rolling velocity of granulocytes compared to the streaming velocity of red cells was calculated before and after the administration of adenosine.

NC(=O)c1ncn([C@@H]2O[C@H](COP(=O)(O)O)[C@@H](O)[C@H]2O)c1N [AICA ribotide]
inhibition at 200 µM (AMP deaminase; read-out: AMP deaminase inhibited): 38%

NC(=O)c1ncn([C@@H]2O[C@H](COP(=O)(O)O)[C@@H](O)[C@H]2O)n1 [ribavirin monophosphate]
AMP deaminase inhibited (AMP deaminase; 200 μM ribotide, cytoplasmic lysates from a human lymphoblast line): 54%

NC(=O)c1ncn([C@@H]2O[C@H](CO)[C@@H](O)[C@H]2O)n1 [ribavirin, 1-β-D-ribofuranosyl-1H-1,2,4-triazole-3-carboxamide]
correction of the twofold lower adenosine secretion of HPRT-deficient cells [1]: can be corrected by pretreatment
mast cell mediator content and cell viability [2]: did not alter
preformed mediator release ([2]; 1 μM for six days): inhibits mediator release significantly
β-hexosaminidase release ([2]; 10 μM added at the time of mast cell stimulation): does not affect
net β-hexosaminidase release versus controls ([2]; 1, 10, or 20 μM for six days, A23187 challenge (FIG. 11)): significantly less
β-hexosaminidase release versus cells cultured in media alone ([2]; three to seven days in 10 μM, washed, A23187 challenge (FIG. 10), p<0.05): marked attenuation
spontaneous release of β-hexosaminidase versus control cells ([2]; unchallenged cells): similar
adenosine release from lymphoblasts [3]: increased adenosine release

Nc1ncnc2c1ncn2[C@@H]1O[C@H](CO)[C@@H](O)[C@H]1O [Adenosine, 9-β-D-ribofuranosyladenine]
decrease of fracture stress between granulocytes and endothelial cells [4]: by a factor of two
rolling velocity of granulocytes in microvessels [4]: twofold increase
